Converted amounts (≈) assume the structure as drawn. Each block holds one compound with its values, some of them ahead of it.
How the values were obtained:
Type in all cases: functional
Pseudomonas aeruginosa [1] = assay: Antimicrobial activity against Pseudomonas aeruginosa 1951-00
Pseudomonas aeruginosa [2] = assay: Antimicrobial activity against Pseudomonas aeruginosa 1752-00
Pseudomonas aeruginosa [3] = assay: Antimicrobial activity against Pseudomonas aeruginosa 1753-00
Pseudomonas aeruginosa [4] = assay: Antimicrobial activity against Pseudomonas aeruginosa 1957-00
Pseudomonas aeruginosa [5] = assay: Antimicrobial activity against Pseudomonas aeruginosa 1569-05
Pseudomonas aeruginosa [6] = assay: Antimicrobial activity against Pseudomonas aeruginosa 1570-05
Pseudomonas aeruginosa [7] = assay: Antimicrobial activity against Pseudomonas aeruginosa 1613-09
Pseudomonas aeruginosa [8] = assay: Antimicrobial activity against Pseudomonas aeruginosa 1954-00
Pseudomonas aeruginosa [9] = assay: Antimicrobial activity against Pseudomonas aeruginosa PA-4624
Pseudomonas aeruginosa [10] = assay: Antimicrobial activity against Pseudomonas aeruginosa 1565-05
Pseudomonas aeruginosa [11] = assay: Antimicrobial activity against Pseudomonas aeruginosa 1566-05
Pseudomonas aeruginosa [12] = assay: Antimicrobial activity against Pseudomonas aeruginosa 1567-05
Pseudomonas aeruginosa [13] = assay: Antimicrobial activity against Pseudomonas aeruginosa 1568-05
Pseudomonas aeruginosa [14] = assay: Antimicrobial activity against Pseudomonas aeruginosa 1767-00
Pseudomonas aeruginosa [15] = assay: Antimicrobial activity against Pseudomonas aeruginosa 1768-00
Pseudomonas aeruginosa [16] = assay: Antimicrobial activity against Pseudomonas aeruginosa 1956-00
Pseudomonas aeruginosa [17] = assay: Antimicrobial activity against Pseudomonas aeruginosa PA-75
Pseudomonas aeruginosa [18] = assay: Antimicrobial activity against Pseudomonas aeruginosa 1955-00
Pseudomonas aeruginosa [19] = assay: Antimicrobial activity against Pseudomonas aeruginosa 1561-05
Pseudomonas aeruginosa [20] = assay: Antimicrobial activity against Pseudomonas aeruginosa 1563-00
Pseudomonas aeruginosa [21] = assay: Antimicrobial activity against Pseudomonas aeruginosa 1564-05
Pseudomonas aeruginosa [22] = assay: Antimicrobial activity against Pseudomonas aeruginosa 1615-09
Pseudomonas aeruginosa [23] = assay: Antimicrobial activity against Pseudomonas aeruginosa 1761-00
Pseudomonas aeruginosa [24] = assay: Antimicrobial activity against Pseudomonas aeruginosa 1764-00
Pseudomonas aeruginosa [25] = assay: Antimicrobial activity against Pseudomonas aeruginosa 1765-00
Pseudomonas aeruginosa [26] = assay: Antimicrobial activity against Pseudomonas aeruginosa 1766-00
Pseudomonas aeruginosa [27] = assay: Antimicrobial activity against Pseudomonas aeruginosa 1952-00
Pseudomonas aeruginosa [28] = assay: Antimicrobial activity against Pseudomonas aeruginosa 1953-00
Pseudomonas aeruginosa [29] = assay: Antimicrobial activity against Pseudomonas aeruginosa 1562-05
Pseudomonas aeruginosa [30] = assay: Antimicrobial activity against Pseudomonas aeruginosa 1611-09
Pseudomonas aeruginosa [31] = assay: Antimicrobial activity against Pseudomonas aeruginosa 1614-09
Pseudomonas aeruginosa [32] = assay: Antimicrobial activity against Pseudomonas aeruginosa 1619-08
Pseudomonas aeruginosa [33] = assay: Antimicrobial activity against Pseudomonas aeruginosa 1760-00
Pseudomonas aeruginosa [34] = assay: Antimicrobial activity against Pseudomonas aeruginosa PA-1757
Pseudomonas aeruginosa [35] = assay: Antimicrobial activity against Pseudomonas aeruginosa 1527-08
Pseudomonas aeruginosa [36] = assay: Antimicrobial activity against Pseudomonas aeruginosa PA-4991
Pseudomonas aeruginosa [37] = assay: Antimicrobial activity against Pseudomonas aeruginosa PA-4999
Pseudomonas aeruginosa [38] = assay: Antimicrobial activity against Pseudomonas aeruginosa 1612-09
Pseudomonas aeruginosa [39] = assay: Antimicrobial activity against Pseudomonas aeruginosa PA-4995
Pseudomonas aeruginosa [40] = assay: Antimicrobial activity against Pseudomonas aeruginosa 1513-08
Pseudomonas aeruginosa [41] = assay: Antimicrobial activity against Pseudomonas aeruginosa 1515-08
Pseudomonas aeruginosa [42] = assay: Antimicrobial activity against Pseudomonas aeruginosa PA-4990
Pseudomonas aeruginosa [43] = assay: Antimicrobial activity against Pseudomonas aeruginosa PA-4997
Pseudomonas aeruginosa [44] = assay: Antimicrobial activity against Pseudomonas aeruginosa 1523-08
Pseudomonas aeruginosa [45] = assay: Antimicrobial activity against Pseudomonas aeruginosa PA-4993
Pseudomonas aeruginosa [46] = assay: Antimicrobial activity against Pseudomonas aeruginosa 1509-08
Pseudomonas aeruginosa [47] = assay: Antimicrobial activity against Pseudomonas aeruginosa 1510-08
Pseudomonas aeruginosa [48] = assay: Antimicrobial activity against Pseudomonas aeruginosa 1512-08
Pseudomonas aeruginosa [49] = assay: Antimicrobial activity against Pseudomonas aeruginosa 1514-08
Pseudomonas aeruginosa [50] = assay: Antimicrobial activity against Pseudomonas aeruginosa 1521-08
Pseudomonas aeruginosa [51] = assay: Antimicrobial activity against Pseudomonas aeruginosa 1526-08

MIC90 (Pseudomonas aeruginosa [1]): 0.25 µg/mL (≈ 0.351 µM) | MIC90 (Pseudomonas aeruginosa [2]): 0.25 µg/mL (≈ 0.351 µM) | MIC90 (Pseudomonas aeruginosa [3]): 0.5 µg/mL (≈ 0.702 µM) | MIC90 (Pseudomonas aeruginosa [4]): 0.06 µg/mL (≈ 0.0842 µM) | MIC90 (Pseudomonas aeruginosa [5]): 0.25 µg/mL (≈ 0.351 µM) | MIC90 (Pseudomonas aeruginosa [6]): 0.125 µg/mL (≈ 0.175 µM) | MIC90 (Pseudomonas aeruginosa [7]): 0.25 µg/mL (≈ 0.351 µM) | MIC90 (Pseudomonas aeruginosa [8]): 0.03 µg/mL (≈ 0.0421 µM) | MIC90 (Pseudomonas aeruginosa [9]): 0.5 µg/mL (≈ 0.702 µM) | MIC90 (Pseudomonas aeruginosa [10]): 0.25 µg/mL (≈ 0.351 µM) | MIC90 (Pseudomonas aeruginosa [11]): 0.125 µg/mL (≈ 0.175 µM) | MIC90 (Pseudomonas aeruginosa [12]): 0.125 µg/mL (≈ 0.175 µM) | MIC90 (Pseudomonas aeruginosa [13]): 0.25 µg/mL (≈ 0.351 µM) | MIC90 (Pseudomonas aeruginosa [14]): 0.125 µg/mL (≈ 0.175 µM) | MIC90 (Pseudomonas aeruginosa [15]): 0.06 µg/mL (≈ 0.0842 µM) | MIC90 (Pseudomonas aeruginosa [16]): 0.06 µg/mL (≈ 0.0842 µM) | MIC90 (Pseudomonas aeruginosa [17]): 0.25 µg/mL (≈ 0.351 µM) | MIC90 (Pseudomonas aeruginosa [18]): 0.125 µg/mL (≈ 0.175 µM) | MIC90 (Pseudomonas aeruginosa [19]): 0.5 µg/mL (≈ 0.702 µM) | MIC90 (Pseudomonas aeruginosa [20]): 0.125 µg/mL (≈ 0.175 µM) | MIC90 (Pseudomonas aeruginosa [21]): 0.125 µg/mL (≈ 0.175 µM) | MIC90 (Pseudomonas aeruginosa [22]): 0.25 µg/mL (≈ 0.351 µM) | MIC90 (Pseudomonas aeruginosa [23]): 0.5 µg/mL (≈ 0.702 µM) | MIC90 (Pseudomonas aeruginosa [24]): 0.06 µg/mL (≈ 0.0842 µM) | MIC90 (Pseudomonas aeruginosa [25]): 0.5 µg/mL (≈ 0.702 µM) | MIC90 (Pseudomonas aeruginosa [26]): 1 µg/mL (≈ 1.4 µM) | MIC90 (Pseudomonas aeruginosa [27]): 0.25 µg/mL (≈ 0.351 µM) | MIC90 (Pseudomonas aeruginosa [28]): 0.25 µg/mL (≈ 0.351 µM) | MIC90 (Pseudomonas aeruginosa [29]): 0.06 µg/mL (≈ 0.0842 µM) | MIC90 (Pseudomonas aeruginosa [30]): 0.06 µg/mL (≈ 0.0842 µM) | MIC90 (Pseudomonas aeruginosa [31]): 0.25 µg/mL (≈ 0.351 µM) | MIC90 (Pseudomonas aeruginosa [32]): 0.03 µg/mL (≈ 0.0421 µM) | MIC90 (Pseudomonas aeruginosa [33]): 0.5 µg/mL (≈ 0.702 µM) | MIC90 (Pseudomonas aeruginosa [34]): 4 µg/mL (≈ 5.61 µM) | MIC90 (Pseudomonas aeruginosa [35]): 0.25 µg/mL (≈ 0.351 µM) | MIC90 (Pseudomonas aeruginosa [36]): 0.25 µg/mL (≈ 0.351 µM) | MIC90 (Pseudomonas aeruginosa [37]): 0.25 µg/mL (≈ 0.351 µM) | MIC90 (Pseudomonas aeruginosa [38]): 0.5 µg/mL (≈ 0.702 µM) | MIC90 (Pseudomonas aeruginosa [39]): 0.06 µg/mL (≈ 0.0842 µM) | MIC90 (Pseudomonas aeruginosa [40]): 0.5 µg/mL (≈ 0.702 µM) | MIC90 (Pseudomonas aeruginosa [41]): 0.5 µg/mL (≈ 0.702 µM) | MIC90 (Pseudomonas aeruginosa [42]): 0.125 µg/mL (≈ 0.175 µM) | MIC90 (Pseudomonas aeruginosa [43]): 0.25 µg/mL (≈ 0.351 µM) | MIC90 (Pseudomonas aeruginosa [44]): 0.25 µg/mL (≈ 0.351 µM) | MIC90 (Pseudomonas aeruginosa [45]): 0.25 µg/mL (≈ 0.351 µM) | MIC90 (Pseudomonas aeruginosa [46]): 0.5 µg/mL (≈ 0.702 µM) | MIC90 (Pseudomonas aeruginosa [47]): 0.5 µg/mL (≈ 0.702 µM) | MIC90 (Pseudomonas aeruginosa [48]): 0.25 µg/mL (≈ 0.351 µM) | MIC90 (Pseudomonas aeruginosa [49]): 0.5 µg/mL (≈ 0.702 µM) | MIC90 (Pseudomonas aeruginosa [50]): 0.5 µg/mL (≈ 0.702 µM) | MIC90 (Pseudomonas aeruginosa [51]): 0.125 µg/mL (≈ 0.175 µM)
Structure (SMILES): C[C@H](O)Cn1c(-c2cc(=O)c(O)c[nH]2)nn(S(=O)(=O)NC(=O)N2C(=O)[C@@H](NC(=O)/C(=N\OC(C)(C)C(=O)O)c3csc(N)n3)[C@@H]2C)c1=O

Structure (SMILES): CC(C)(O/N=C(\C(=O)N[C@H]1CN(C(=O)NS(=O)(=O)n2nc(-c3cc(=O)c(O)c[nH]3)n(C[C@@H](O)CO)c2=O)C1=O)c1csc(N)n1)C(=O)O
MIC90 (Pseudomonas aeruginosa [1]): 0.25 µg/mL (≈ 0.35 µM) | MIC90 (Pseudomonas aeruginosa [2]): 0.5 µg/mL (≈ 0.7 µM) | MIC90 (Pseudomonas aeruginosa [3]): 0.25 µg/mL (≈ 0.35 µM) | MIC90 (Pseudomonas aeruginosa [4]): 0.06 µg/mL (≈ 0.084 µM) | MIC90 (Pseudomonas aeruginosa [5]): 0.25 µg/mL (≈ 0.35 µM) | MIC90 (Pseudomonas aeruginosa [6]): 0.125 µg/mL (≈ 0.175 µM) | MIC90 (Pseudomonas aeruginosa [7]): 0.5 µg/mL (≈ 0.7 µM) | MIC90 (Pseudomonas aeruginosa [8]): 0.06 µg/mL (≈ 0.084 µM) | MIC90 (Pseudomonas aeruginosa [9]): 0.25 µg/mL (≈ 0.35 µM) | MIC90 (Pseudomonas aeruginosa [10]): 0.125 µg/mL (≈ 0.175 µM) | MIC90 (Pseudomonas aeruginosa [11]): 0.125 µg/mL (≈ 0.175 µM) | MIC90 (Pseudomonas aeruginosa [12]): 0.125 µg/mL (≈ 0.175 µM) | MIC90 (Pseudomonas aeruginosa [13]): 0.25 µg/mL (≈ 0.35 µM) | MIC90 (Pseudomonas aeruginosa [14]): 0.125 µg/mL (≈ 0.175 µM) | MIC90 (Pseudomonas aeruginosa [15]): 0.06 µg/mL (≈ 0.084 µM) | MIC90 (Pseudomonas aeruginosa [16]): 0.06 µg/mL (≈ 0.084 µM) | MIC90 (Pseudomonas aeruginosa [17]): 0.25 µg/mL (≈ 0.35 µM) | MIC90 (Pseudomonas aeruginosa [18]): 0.125 µg/mL (≈ 0.175 µM) | MIC90 (Pseudomonas aeruginosa [19]): 1 µg/mL (≈ 1.4 µM) | MIC90 (Pseudomonas aeruginosa [20]): 0.125 µg/mL (≈ 0.175 µM) | MIC90 (Pseudomonas aeruginosa [21]): 0.125 µg/mL (≈ 0.175 µM) | MIC90 (Pseudomonas aeruginosa [22]): 0.25 µg/mL (≈ 0.35 µM) | MIC90 (Pseudomonas aeruginosa [23]): 1 µg/mL (≈ 1.4 µM) | MIC90 (Pseudomonas aeruginosa [24]): 0.125 µg/mL (≈ 0.175 µM) | MIC90 (Pseudomonas aeruginosa [25]): 0.5 µg/mL (≈ 0.7 µM) | MIC90 (Pseudomonas aeruginosa [26]): 16 µg/mL (≈ 22.4 µM) | MIC90 (Pseudomonas aeruginosa [27]): 0.125 µg/mL (≈ 0.175 µM) | MIC90 (Pseudomonas aeruginosa [28]): 0.5 µg/mL (≈ 0.7 µM) | MIC90 (Pseudomonas aeruginosa [29]): 0.125 µg/mL (≈ 0.175 µM) | MIC90 (Pseudomonas aeruginosa [30]): 0.125 µg/mL (≈ 0.175 µM) | MIC90 (Pseudomonas aeruginosa [31]): 0.25 µg/mL (≈ 0.35 µM) | MIC90 (Pseudomonas aeruginosa [32]): 0.06 µg/mL (≈ 0.084 µM) | MIC90 (Pseudomonas aeruginosa [33]): 0.25 µg/mL (≈ 0.35 µM) | MIC90 (Pseudomonas aeruginosa [34]): 8 µg/mL (≈ 11.2 µM) | MIC90 (Pseudomonas aeruginosa [35]): 0.25 µg/mL (≈ 0.35 µM) | MIC90 (Pseudomonas aeruginosa [36]): 0.25 µg/mL (≈ 0.35 µM) | MIC90 (Pseudomonas aeruginosa [37]): 0.25 µg/mL (≈ 0.35 µM) | MIC90 (Pseudomonas aeruginosa [38]): 0.5 µg/mL (≈ 0.7 µM) | MIC90 (Pseudomonas aeruginosa [39]): 0.125 µg/mL (≈ 0.175 µM) | MIC90 (Pseudomonas aeruginosa [40]): 0.5 µg/mL (≈ 0.7 µM) | MIC90 (Pseudomonas aeruginosa [41]): 0.25 µg/mL (≈ 0.35 µM) | MIC90 (Pseudomonas aeruginosa [42]): 0.125 µg/mL (≈ 0.175 µM) | MIC90 (Pseudomonas aeruginosa [43]): 0.25 µg/mL (≈ 0.35 µM) | MIC90 (Pseudomonas aeruginosa [44]): 0.25 µg/mL (≈ 0.35 µM) | MIC90 (Pseudomonas aeruginosa [45]): 0.125 µg/mL (≈ 0.175 µM) | MIC90 (Pseudomonas aeruginosa [46]): 2 µg/mL (≈ 2.8 µM) | MIC90 (Pseudomonas aeruginosa [47]): 8 µg/mL (≈ 11.2 µM) | MIC90 (Pseudomonas aeruginosa [48]): 0.25 µg/mL (≈ 0.35 µM) | MIC90 (Pseudomonas aeruginosa [49]): 0.5 µg/mL (≈ 0.7 µM) | MIC90 (Pseudomonas aeruginosa [50]): 0.5 µg/mL (≈ 0.7 µM) | MIC90 (Pseudomonas aeruginosa [51]): 0.5 µg/mL (≈ 0.7 µM)
